The target in one experiment is PI3K α (Homo sapiens, UniProt P42336). The experiment in a line: PI 3-Kinase (human) HTRF assay, PI3K α.
For a further experiment, the target named is PI3K β (Homo sapiens, UniProt P42338). The experiment can be described thus: PI 3-Kinase (human) HTRF assay, PI3K β.
The target of the next experiment is PI3K δ (Homo sapiens, UniProt O00329). The experiment can be described thus: PI 3-Kinase (human) HTRF assay, PI3K δ. (In general: Time-resolved FRET reads energy transfer from a long-lived donor to a nearby acceptor.)
For a further experiment, the target named is T1, mTOR (Homo sapiens, UniProt P42345).
T1 construct: purchased Invitrogen
The experiment can be described thus: mTOR kinase inhibition assay (radiometric or LanthaScreen TR-FRET). It counts as biochemical. Conditions: read-out: mTORC IC50.

A further experiment has as its target PI3K γ (Homo sapiens, UniProt P48736). The experiment in a line: PI 3-Kinase (human) HTRF assay, PI3K γ.
The mark [1] stands for this setting: read-out: PI3K α IC50, in vitro.
Where [2] appears, read: read-out: PI3K β IC50, in vitro.
Setting [3] is: read-out: PI3K δ IC50, in vitro.
[4] abbreviates: read-out: PI3K γ IC50, in vitro.

Like-named read-outs stand apart in the source and are kept apart here.

These results are taken from patent US9295673B2, “Combination of mTOR inhibitors and P13-kinase inhibitors, and uses thereof” (Intellikine LLC, priority 2011, dated 2016).

Sequence of PI3K α (P42336 whole entry): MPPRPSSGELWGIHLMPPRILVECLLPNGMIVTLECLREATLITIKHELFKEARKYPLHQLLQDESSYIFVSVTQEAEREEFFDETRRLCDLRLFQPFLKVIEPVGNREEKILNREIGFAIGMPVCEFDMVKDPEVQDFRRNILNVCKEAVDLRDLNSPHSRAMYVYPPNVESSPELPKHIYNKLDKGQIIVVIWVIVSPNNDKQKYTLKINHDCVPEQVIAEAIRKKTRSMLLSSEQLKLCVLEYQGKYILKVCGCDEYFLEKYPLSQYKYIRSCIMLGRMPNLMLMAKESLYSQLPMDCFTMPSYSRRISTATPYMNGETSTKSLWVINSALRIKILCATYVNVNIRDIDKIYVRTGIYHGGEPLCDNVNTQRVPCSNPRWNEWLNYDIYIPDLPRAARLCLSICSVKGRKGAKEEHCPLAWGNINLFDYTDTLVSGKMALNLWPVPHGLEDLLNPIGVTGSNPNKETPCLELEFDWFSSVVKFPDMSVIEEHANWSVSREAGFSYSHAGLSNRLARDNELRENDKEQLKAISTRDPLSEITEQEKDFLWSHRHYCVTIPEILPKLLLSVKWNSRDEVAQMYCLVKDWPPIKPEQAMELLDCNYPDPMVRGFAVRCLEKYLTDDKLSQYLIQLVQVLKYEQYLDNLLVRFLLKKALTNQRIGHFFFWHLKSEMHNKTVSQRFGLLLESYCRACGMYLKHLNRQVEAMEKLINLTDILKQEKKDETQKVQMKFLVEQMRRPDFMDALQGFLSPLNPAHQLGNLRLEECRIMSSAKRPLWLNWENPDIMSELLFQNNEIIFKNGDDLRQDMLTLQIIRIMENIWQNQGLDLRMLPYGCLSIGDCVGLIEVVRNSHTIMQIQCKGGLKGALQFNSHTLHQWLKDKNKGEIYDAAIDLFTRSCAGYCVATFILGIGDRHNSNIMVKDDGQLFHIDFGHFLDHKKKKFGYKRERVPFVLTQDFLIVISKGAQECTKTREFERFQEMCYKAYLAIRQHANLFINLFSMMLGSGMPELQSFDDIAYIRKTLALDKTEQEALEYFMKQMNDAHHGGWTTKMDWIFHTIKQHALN
Sequence of PI3K α (P27986 whole entry partner): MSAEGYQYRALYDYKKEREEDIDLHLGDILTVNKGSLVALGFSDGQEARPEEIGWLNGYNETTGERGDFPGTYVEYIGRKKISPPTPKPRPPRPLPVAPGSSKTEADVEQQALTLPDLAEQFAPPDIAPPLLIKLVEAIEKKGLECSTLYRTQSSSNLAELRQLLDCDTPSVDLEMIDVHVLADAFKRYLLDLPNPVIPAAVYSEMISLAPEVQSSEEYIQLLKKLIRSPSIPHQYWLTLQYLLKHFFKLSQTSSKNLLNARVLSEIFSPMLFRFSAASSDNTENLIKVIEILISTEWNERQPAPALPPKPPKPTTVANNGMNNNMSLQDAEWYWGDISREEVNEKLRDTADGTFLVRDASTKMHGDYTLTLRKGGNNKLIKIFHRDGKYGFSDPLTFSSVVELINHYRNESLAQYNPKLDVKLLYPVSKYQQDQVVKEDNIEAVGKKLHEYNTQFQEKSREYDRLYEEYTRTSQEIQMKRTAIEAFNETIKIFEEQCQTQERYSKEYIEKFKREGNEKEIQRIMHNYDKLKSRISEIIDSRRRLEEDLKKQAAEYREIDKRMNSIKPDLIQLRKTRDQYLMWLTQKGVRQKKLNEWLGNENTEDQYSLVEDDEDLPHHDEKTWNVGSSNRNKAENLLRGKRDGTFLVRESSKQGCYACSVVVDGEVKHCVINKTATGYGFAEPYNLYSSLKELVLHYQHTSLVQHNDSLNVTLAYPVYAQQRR
T1 sequence (P42345 1360-2549 limits assumed): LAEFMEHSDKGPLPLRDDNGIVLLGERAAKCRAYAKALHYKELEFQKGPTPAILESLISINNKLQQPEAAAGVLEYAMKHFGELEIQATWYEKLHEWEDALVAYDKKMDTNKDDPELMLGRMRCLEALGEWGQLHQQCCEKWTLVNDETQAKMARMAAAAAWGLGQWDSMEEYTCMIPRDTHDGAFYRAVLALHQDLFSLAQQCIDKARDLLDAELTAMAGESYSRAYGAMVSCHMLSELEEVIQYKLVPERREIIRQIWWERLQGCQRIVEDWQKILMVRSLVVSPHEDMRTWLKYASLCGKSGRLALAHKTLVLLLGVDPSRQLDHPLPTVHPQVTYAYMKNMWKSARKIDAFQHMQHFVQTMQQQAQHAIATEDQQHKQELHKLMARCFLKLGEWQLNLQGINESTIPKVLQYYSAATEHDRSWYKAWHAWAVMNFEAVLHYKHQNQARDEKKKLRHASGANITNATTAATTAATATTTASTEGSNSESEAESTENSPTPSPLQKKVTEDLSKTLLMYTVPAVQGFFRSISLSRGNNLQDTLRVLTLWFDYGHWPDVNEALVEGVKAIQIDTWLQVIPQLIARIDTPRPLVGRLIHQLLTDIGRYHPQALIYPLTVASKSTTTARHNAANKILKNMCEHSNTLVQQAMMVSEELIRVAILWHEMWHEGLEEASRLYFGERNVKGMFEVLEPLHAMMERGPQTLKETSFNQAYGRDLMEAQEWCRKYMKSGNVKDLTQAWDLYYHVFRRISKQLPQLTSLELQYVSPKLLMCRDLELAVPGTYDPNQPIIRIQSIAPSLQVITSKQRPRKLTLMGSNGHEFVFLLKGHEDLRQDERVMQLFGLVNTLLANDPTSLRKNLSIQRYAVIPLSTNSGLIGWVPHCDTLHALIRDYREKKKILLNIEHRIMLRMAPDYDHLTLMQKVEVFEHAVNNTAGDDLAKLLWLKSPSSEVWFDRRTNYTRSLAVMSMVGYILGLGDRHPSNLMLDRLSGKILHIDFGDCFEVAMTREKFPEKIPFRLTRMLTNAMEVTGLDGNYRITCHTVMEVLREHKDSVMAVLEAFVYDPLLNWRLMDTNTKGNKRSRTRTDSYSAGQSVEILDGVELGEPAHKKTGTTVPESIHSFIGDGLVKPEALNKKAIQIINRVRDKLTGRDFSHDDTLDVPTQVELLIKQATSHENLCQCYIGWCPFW
Sequence of PI3K γ (P48736 whole entry): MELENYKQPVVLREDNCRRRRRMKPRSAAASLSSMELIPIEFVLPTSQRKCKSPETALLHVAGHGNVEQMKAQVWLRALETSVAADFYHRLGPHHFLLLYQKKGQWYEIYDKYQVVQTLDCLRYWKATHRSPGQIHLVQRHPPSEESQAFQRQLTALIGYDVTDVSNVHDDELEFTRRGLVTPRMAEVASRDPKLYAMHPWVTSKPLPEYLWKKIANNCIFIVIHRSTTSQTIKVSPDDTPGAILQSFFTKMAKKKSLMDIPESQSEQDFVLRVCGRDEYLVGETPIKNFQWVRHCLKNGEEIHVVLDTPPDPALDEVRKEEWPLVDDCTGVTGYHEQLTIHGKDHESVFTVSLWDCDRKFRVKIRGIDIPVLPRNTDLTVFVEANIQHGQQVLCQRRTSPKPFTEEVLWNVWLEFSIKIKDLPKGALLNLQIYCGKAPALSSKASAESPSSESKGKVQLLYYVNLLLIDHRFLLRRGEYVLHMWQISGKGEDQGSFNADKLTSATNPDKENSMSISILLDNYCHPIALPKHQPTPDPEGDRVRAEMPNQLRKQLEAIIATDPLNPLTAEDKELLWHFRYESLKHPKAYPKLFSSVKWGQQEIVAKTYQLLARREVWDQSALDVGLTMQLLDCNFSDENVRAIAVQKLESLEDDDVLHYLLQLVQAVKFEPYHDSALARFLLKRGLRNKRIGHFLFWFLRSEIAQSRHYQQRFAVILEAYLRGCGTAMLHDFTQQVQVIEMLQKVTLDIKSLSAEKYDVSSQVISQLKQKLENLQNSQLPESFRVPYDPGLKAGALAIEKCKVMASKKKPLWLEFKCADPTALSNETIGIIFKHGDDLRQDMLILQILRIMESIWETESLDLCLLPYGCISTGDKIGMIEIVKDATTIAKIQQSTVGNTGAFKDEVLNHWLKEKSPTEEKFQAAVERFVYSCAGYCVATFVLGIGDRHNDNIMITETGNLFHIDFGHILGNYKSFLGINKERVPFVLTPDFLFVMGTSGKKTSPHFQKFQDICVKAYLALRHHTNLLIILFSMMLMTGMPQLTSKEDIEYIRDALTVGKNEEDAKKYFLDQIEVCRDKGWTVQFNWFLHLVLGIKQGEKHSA
Experimental for PI3K β: (§1) An exemplary system is PI 3-Kinase (human) HTRF™ Assay from Upstate. […] Briefly, the assay is a time resolved FRET assay that indirectly measures PIP3 product formed by the activity of a PI3-K. The kinase reaction is performed in a microtitre plate (e.g., a 384 well microtitre plate). The total reaction volume is approximately 20 ul per well. In the first step, each well receives 2 ul of test compound in 20% dimethylsulphoxide resulting in a 2% DMSO final concentration. […] The plate is sealed and incubated for 15 minutes at room temperature. […] The plate is sealed and incubated for 1 hour at room temperature. The reaction is stopped by adding 5 ul of Stop Solution per well and then 5 ul of Detection Mix is added per well. The plate is sealed, incubated for 1 hour at room temperature, and then read on an appropriate plate reader. Data is analyzed and IC50s are generated using GraphPad Prism 5.
Experimental for PI3K γ: as §1
Experimental for PI3K δ: as §1
Experimental for mTOR: The compounds described herein can be tested against recombinant mTOR (Invitrogen) in an assay containing 50 mM HEPES, pH 7.5, 1 mM EGTA, 10 mM MgCl2, 2.5 mM, 0.01% Tween, 10 μM ATP (2.5 μCi of μ-32P-ATP), and 3 mg/mL BSA. Rat recombinant PHAS-1/4EBP1 (Calbiochem; 2 mg/mL) is used as a substrate. Reactions are terminated by spotting onto nitrocellulose, which is washed with 1M NaC1/1% phosphoric acid (approximately 6 times, 5-10 minutes each). Sheets are dried and the transferred radioactivity quantitated by phosphorimaging.
For instance, one can use Invitrogen's LanthaScreen™ Kinase assay to test the inhibitors of mTOR disclosed herein. This assay is a time resolved FRET platform that measures the phosphorylation of GFP labeled 4EBP1 by mTOR kinase. The kinase reaction is performed in a white 384 well microtitre plate. The total reaction volume is 20 ul per well and the reaction buffer composition is 50 mM HEPES pH7.5, 0.01% Polysorbate 20, 1 mM EGTA, 10 mM MnCl2, and 2 mM DTT. In the first step, each well receives 2 ul of test compound in 20% dimethylsulphoxide resulting in a 2% DMSO final concentration. […] The plate is sealed and incubated for 1 hour at room temperature. […] The plate is sealed, incubated for 1 hour at room temperature, and then read on a plate reader set up for LanthaScreen™ TR-FRET. Data is analyzed and IC50s are generated using GraphPad Prism 5.

On to `CN1CCN(CCNC(=O)c2cnc3ccc(-c4ccc5oc(N)nc5c4)cn23)CC1` [Compound 306], for which the results for the IC50 on PI3K α (read-out: PI3K α IC50), at PI3K β (read-out: PI3K β IC50) and at PI3K δ (read-out: PI3K δ IC50) were < 0.1 µM, < 1 µM and < 1 µM, respectively.
In the case of `Nc1ncnc2c1c(-c1cc3cc(O)ccc3[nH]1)nn2C1CCOCC1` [Compound 42], the IC50 (as a rule, the concentration that gives 50% inhibition) on mTOR (Table 2) is < 0.005 µM; on PI3K α (read-out: PI3K α IC50), > 0.5 µM; on PI3K β (read-out: PI3K β IC50, Table 2), > 0.5 µM; at PI3K δ (read-out: PI3K δ IC50), 0.05 to 0.1 µM.
For the compound `Nc1nc2cc(-c3ccc4ncc(N5C6CCC5COC6)cc4n3)ccc2o1` [Compound 574], the IC50 on PI3K α (read-out: PI3K α IC50, Table 4) is < 0.1 µM; at PI3K β (read-out: PI3K β IC50, Table 4) it was < 10 µM; on PI3K γ (read-out: PI3K γ IC50, Table 4), < 0.1 µM; on PI3K δ (read-out: PI3K δ IC50), > 10 µM.
Turning to `C[C@@H]1COCCN1C1CN(c2cnc3ccc(-c4ccc5oc(N)nc5c4)nc3n2)C1` [Compound 600], the IC50 is < 10 µM at PI3K α (read-out: PI3K α IC50, Table 4) and < 10 µM on PI3K γ (read-out: PI3K γ IC50, Table 4).
As for `[2H]c1c(-c2ccc3ncc(C(=O)N4CCOCC4)n3c2)c([2H])c2nc(N)oc2c1[2H]` [Compound 531], the IC50 at PI3K α (setting [1]) is < 0.1 µM; at PI3K β (setting [2]) it was < 10 µM; at PI3K δ (setting [3]) it was > 10 µM.
`Nc1nc2cc(-c3ccc4ncc(N5CCNC(=O)C5)nc4n3)ccc2o1` [Compound 580]: the IC50 against PI3K α is < 0.1 µM; against PI3K β, < 1 µM; on PI3K γ, < 0.1 µM.
On to `O=C(c1cnc2ccc(-c3ccc(Cl)c(NS(=O)(=O)c4ccc(F)cc4F)c3)cn12)N1CCOCC1` [Compound 461], for which the IC50 at PI3K α (setting [1]) is < 1 µM; on PI3K β (setting [2]), < 10 µM; at PI3K δ (setting [3]) it was < 10 µM.
With `Nc1nc2cc(-c3ccc4ncc(N5CC6CCC(C5)O6)cc4n3)ccc2o1` [Compound 610], the IC50 at PI3K α (read-out: PI3K α IC50, Table 4) is < 0.1 µM; on PI3K β (read-out: PI3K β IC50, Table 4), > 10 µM; at PI3K γ (read-out: PI3K γ IC50, Table 4), < 0.1 µM; on PI3K δ (read-out: PI3K δ IC50, Table 4), > 10 µM.
For the compound `C[C@H]1CN(c2cnc3scc(-c4ccc5oc(N)nc5c4)c3n2)CCN1` [Compound 399], the IC50 against PI3K α, at PI3K β, against PI3K γ and against PI3K δ was > 10 µM in each case.
`C[C@H]1CN(C2CN(c3cnc4ccc(-c5ccc6oc(N)nc6c5)nc4c3)C2)CCN1C` [Compound 606]: the IC50 was > 10 µM on mTOR (Table 4), < 0.1 µM against PI3K α and < 1 µM at PI3K δ.
Consider `O=C(c1cnc2ccc(-c3cncc4c3cnn4CCO)cn12)N1CCOCC1` [Compound 539], for which the IC50 on PI3K α (setting [1]), at PI3K β (setting [2]), at PI3K γ (setting [4]) and on PI3K δ (setting [3]) was > 10 µM each time.
Turning to `C[C@@H]1CN(c2cnc3ccc(-c4ccc5oc(N)nc5c4)nc3c2)CCN1` [Compound 599], the IC50 on mTOR (Table 4) is > 10 µM; on PI3K γ (read-out: PI3K γ IC50, Table 4) it was < 10 µM; at PI3K δ (read-out: PI3K δ IC50) it was < 10 µM.
`COc1ccc(CNc2n[nH]c3cc(-c4ccc5oc(N)nc5c4)ccc23)cc1` [Compound 429]: the IC50 at PI3K α (setting [1]), on PI3K β (setting [2]), at PI3K γ (setting [4]) and at PI3K δ (setting [3]) was > 10 µM throughout.
As to `CNS(=O)(=O)c1cc(-c2ccc3ncc(C(=O)N4CCOCC4)n3c2)ccc1OC` [Compound 445], the IC50 at PI3K α (setting [1]), on PI3K β (setting [2]), on PI3K γ (setting [4]) and on PI3K δ (setting [3]) was > 10 µM throughout.
As for `Nc1nsc2cc(-c3ccc4nccc(-c5ccncc5)c4c3)ccc12` [Compound 13], the IC50 is < 0.1 µM on PI3K α, < 1 µM against PI3K β, < 1 µM against PI3K γ and < 1 µM at PI3K δ.
`CCN1CCN(C(=O)c2cnc3ncc(-c4ccc5oc(N)nc5c4)cn23)CC1` [Compound 141]: the IC50 is < 1 µM on PI3K α, > 10 µM against PI3K β, < 10 µM against PI3K γ and > 10 µM against PI3K δ.
Regarding `Cc1cc(-c2ccc3nc(N)oc3c2)cn2c(-c3ccncc3)nnc12` [Compound 543], the IC50 is > 10 µM at PI3K α (setting [1]), < 10 µM at PI3K β (setting [2]), > 10 µM at PI3K γ (setting [4]) and > 10 µM on PI3K δ (setting [3]).
As for `Nc1nc2cc(-c3ccc4ncc(NC5CCC(O)CC5)nc4c3)ccc2o1` (centres unmarked) [Compound 128], the 50% inhibitory concentration (IC50) on PI3K α (read-out: PI3K α IC50) is < 0.1 µM; at PI3K β (read-out: PI3K β IC50), < 10 µM; on PI3K γ (read-out: PI3K γ IC50) it was < 0.1 µM; at PI3K δ (read-out: PI3K δ IC50) it was < 0.1 µM.
In the case of `Cc1ncc(-c2ccc3ncc(C(=O)N4C5CCC4COC5)n3c2)c2cn[nH]c12` [Compound 538], the IC50 was > 10 µM on mTOR (in vitro) and < 10 µM at PI3K δ (read-out: PI3K δ IC50).
Regarding `CC1CN(C2CN(c3cnc4ccc(-c5ccc6oc(N)nc6c5)nc4n3)C2)CCO1` (centres unmarked) [Compound 569], the IC50 on PI3K α (read-out: PI3K α IC50, Table 4) is < 1 µM; at PI3K β (read-out: PI3K β IC50, Table 4), > 10 µM; on PI3K γ (read-out: PI3K γ IC50, Table 4) it was < 10 µM; on PI3K δ (read-out: PI3K δ IC50, Table 4), > 10 µM.
For the compound `CN1CC2CN(C(=O)c3cnc4ccc(-c5ccc6oc(N)nc6c5)cn34)CC2C1` (centres unmarked) [Compound 533], the IC50 on mTOR (in vitro) is > 10 µM.
